Measurements reported in patent US11254663B2 (BRISTOL-MYERS SQUIBB COMPANY, priority 2019, dated 2022).
Where two headings read alike, the source gives them in different places.

Molecular target: FXR (Homo sapiens (Human), UniProt Q96RI1)
Assay: transient human FXR/Gal4-luciferase reporter assay
Assay type: cell-based
Method in brief: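 HEK293 cells stably carrying a 5×Gal4 response element–firefly luciferase reporter were transiently transfected overnight with a Gal4 DBD–human FXR LBD fusion plasmid. Compound was added in DMSO and cells were incubated overnight at 37 °C, 5% CO2. Activity was read as Steady-Glo luminescence.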

[1] = Gal4-hFXR fusion construct, HEK293 reporter cells, response relative to 8 μM GW-4064

FXR, sequence (Q96RI1 262-486): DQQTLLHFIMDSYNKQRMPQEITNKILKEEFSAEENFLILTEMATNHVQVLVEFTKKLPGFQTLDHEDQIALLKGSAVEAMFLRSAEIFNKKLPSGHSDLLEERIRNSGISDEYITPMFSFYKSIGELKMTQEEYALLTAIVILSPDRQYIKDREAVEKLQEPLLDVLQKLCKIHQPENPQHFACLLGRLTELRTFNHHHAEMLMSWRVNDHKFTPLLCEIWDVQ

EC50 [1] [nM] | SMILES | EC50 [nM]
117 | CC(C)(F)c1nc(C23CCC(CN(C(=O)OC4CCC(F)(F)CC4)c4cc(-c5ccc(OC(F)F)cc5)c(F)cn4)(CC2)CC3)no1 [Example 631, 4,4-difluorocyclohexyl (4-(4-(difluoromethoxy)phenyl)-5-fluoropyridin-2-yl) ((4-(5-(2-fluoropropan-2-yl)-1,2,4-oxadiazol-3-yl)bicyclo[2.2.2]octan-1-yl)methyl) carbamate] | –
72 | CC(C)Oc1ccc(-c2ccnc(N(CC34CCC(c5noc(C(C)(F)F)n5)(CC3)CC4)C(=O)N3CCOCC3)c2)cc1 [Example 626, N-((4-(5-(1,1-difluoroethyl)-1,2,4-oxadiazol-3-yl)bicyclo[2.2.2]octan-1-yl)methyl)-N-(4-(4-isopropoxyphenyl)pyridin-2-yl)morpholine-4-carboxamide] | –
42 | CC(C)(F)c1nc(C23CCC(CN(c4cccc(C5=CCC(C(C)(C)O)CC5)c4)C(=O)[C@H]4C[C@](O)(C(F)(F)F)C4)(CC2)CC3)no1 (stereo partly drawn) [Example 587, (cis)-N-((4-(5-(2-fluoropropan-2-yl)-1,2,4-oxadiazol-3-yl)bicyclo[2.2.2]octan-1-yl)methyl)-3-hydroxy-N-(4′-(2-hydroxypropan-2-yl)-2′,3′,4′,5′-tetrahydro-[1,1′-biphenyl]-3-yl)-3-(trifluoromethyl)cyclobutane-1-carboxamide] | –
19 | CC(C)(O)c1ccc(-c2cccc(N(C[C@]34CC[C@](c5noc(C(C)(C)F)n5)(CC3)CC4)C(=O)C3CC(O)(C(F)(F)F)C3)c2)cc1 (stereo partly drawn) [Example 576, (cis)-N-((4-(5-(2-fluoropropan-2-yl)-1,2,4-oxadiazol-3-yl)bicyclo[2.2.2]octan-1-yl)methyl)-3-hydroxy-N-(4′-(2-hydroxypropan-2-yl)-[1,1′-biphenyl]-3-yl)-3-(trifluoromethyl)cyclobutane-1-carboxamide] | –
968 | CC(C)NC(=O)NC12CCC(CN(C(=O)C3CC(O)(C(F)(F)F)C3)c3cccc(-c4ccc(OC(C)C)cc4)c3)(CC1)CC2 (stereo not drawn) [Example 604, (cis)-3-hydroxy-N-(4′-isopropoxy-[1,1′-biphenyl]-3-yl)-N-((4-(3-isopropylureido)bicyclo[2.2.2]octan-1-yl)methyl)-3-(trifluoromethyl)cyclobutane-1-carboxamide] | –
31 | CC(C)(O)c1ccc(-c2ccnc(N(CC34CCC(c5noc(C(C)(C)F)n5)(CC3)CC4)C(=O)OC(C)(C)C(F)(F)F)c2)cc1 [Example 634, 1,1,1-trifluoro-2-methylpropan-2-yl((4-(5-(2-fluoropropan-2-yl)-1,2,4-oxadiazol-3-yl)bicyclo[2.2.2]octan-1-yl)methyl)(4-(4-(2-hydroxypropan-2-yl)phenyl)pyridin-2-yl) carbamate] | –
66 | CS(=O)(=O)Nc1ccc(-c2cccc(N(CC34CCC(c5nc(C6CC6)no5)(CC3)CC4)C(=O)C34CC(F)(C3)C4)c2)cc1 [Example 246, N-((4-(3-cyclopropyl-1,2,4-oxadiazol-5-yl)bicyclo[2.2.2]octan-1-yl)methyl)-3-fluoro-N-(4′-(methylsulfonamido)-[1,1′-biphenyl]-3-yl)bicyclo[1.1.1]pentane-1-carboxamide] | –
1580 | COc1ccc(C23CCC(CN(C(=O)C4CC(F)(F)C4)c4cccc(-c5ccc6nc(C)sc6c5)c4)(CC2)CO3)cc1 [Example 557, 3,3-Difluoro-N-((1-(4-methoxyphenyl)-2-oxabicyclo[2.2.2]octan-4-yl)methyl)-N-(3-(2-methylbenzo[d]thiazol-6-yl)phenyl)cyclobutane-1-carboxamide] | –
207 | Cc1nc2ccc(-c3cccc(N(CC45CCC(c6nc(C7CC7)no6)(CC4)OC5)C(=O)C45CC(F)(C4)C5)c3)cc2s1 [Example 564, N-((1-(3-cyclopropyl-1,2,4-oxadiazol-5-yl)-2-oxabicyclo[2.2.2]octan-4-yl)methyl)-3-fluoro-N-(3-(2-methylbenzo[d]thiazol-6-yl)phenyl)bicyclo[1.1.1]pentane-1-carboxamide] | –

Further lines, the molecule ahead of its results:

SMILES | EC50 [1] [nM] | EC50 [nM]
COc1ccc(-c2cccc(N(CC34CCC(c5nc(C(C)C)no5)(CC3)CC4)C(=O)C34CC(F)(C3)C4)c2)cn1 [Example 382, 3-fluoro-N-((4-(3-isopropyl-1,2,4-oxadiazol-5-yl)bicyclo[2.2.2]octan-1-yl)methyl)-N-(3-(6-methoxypyridin-3-yl)phenyl)bicyclo[1.1.1]pentane-1-carboxamide] | 98 | –
CC(C)(O)c1ccc(-c2cccc(N(CC34CCC(c5noc(C(C)(C)F)n5)(CC3)CC4)C(=O)NCC(F)(F)CO)c2)cc1 [Example 646, 3-(2,2-difluoro-3-hydroxypropyl)-1-((4-(5-(2-fluoropropan-2-yl)-1,2,4-oxadiazol-3-yl)bicyclo[2.2.2]octan-1-yl)methyl)-1-(4′-(2-hydroxypropan-2-yl)-[1,1′-biphenyl]-3-yl)urea] | – | 270
CC(C)(O)c1ccc(-c2ccnc(N(CC34CCC(c5noc(C(C)(F)F)n5)(CC3)CC4)C(=O)OC(C)(C)C(F)(F)F)c2)cc1 [Example 609, 1,1,1-trifluoro-2-methylpropan-2-yl((4-(5-(1,1-difluoroethyl)-1,2,4-oxadiazol-3-yl)bicyclo[2.2.2]octan-1-yl)methyl)(4-(4-(2-hydroxypropan-2-yl)phenyl)pyridin-2-yl)carbamate] | 30 | –
Cc1cc(-c2cccc(N(CC34CCC(c5nc(C6CC6)no5)(CC3)CC4)C(=O)C34CC(F)(C3)C4)c2)nc2scnc12 [Example 327, N-((4-(3-cyclopropyl-1,2,4-oxadiazol-5-yl)bicyclo[2.2.2]octan-1-yl)methyl)-3-fluoro-N-(3-(7-methylthiazolo[5,4-b]pyridin-5-yl)phenyl)bicyclo[1.1.1]pentane-1-carboxamide] | 303 | –
CCOc1ncc(-c2cccc(N(CC34CCC(c5noc(C6(C)COC6)n5)(CC3)CC4)C(=O)[C@H]3C[C@](O)(C(F)(F)F)C3)c2)cn1 [Example 520, (1S,3S)—N-(3-(2-ethoxypyrimidin-5-yl)phenyl)-3-hydroxy-N-((4-(5-(3-methyloxetan-3-yl)-1,2,4-oxadiazol-3-yl)bicyclo[2.2.2]octan-1-yl)methyl)-3-(trifluoromethyl)cyclobutane-1-carboxamide] | – | 449
COc1cc(-c2cccc(N(CC34CCC(c5ccnc(C)c5)(CC3)CC4)C(=O)C3CC(F)(F)C3)c2)ccn1 [Example 237, 3,3-Difluoro-N-(3-(2-methoxypyridin-4-yl)phenyl)-N-((4-(2-methylpyridin-4-yl)bicyclo[2.2.2]octan-1-yl)methyl)cyclobutane-1-carboxamide] | 541 | –
CCOc1cnc(-c2ccnc(N(CC34CCC(c5noc(C(C)(C)C)n5)(CC3)CC4)C(=O)C34CC(F)(C3)C4)c2)nc1 [Example 542, N-((4-(5-(tert-butyl)-1,2,4-oxadiazol-3-yl)bicyclo[2.2.2]octan-1-yl)methyl)-N-(4-(5-ethoxypyrimidin-2-yl)pyridin-2-yl)-3-fluorobicyclo[1.1.1]pentane-1-carboxamide] | – | 22
CC(C)c1noc(C23CCC(CN(C(=O)C45CC(F)(C4)C5)c4cccc(-c5ccc(NS(C)(=O)=O)cc5)c4)(CC2)CC3)n1 [Example 376, 3-fluoro-N-((4-(3-isopropyl-1,2,4-oxadiazol-5-yl)bicyclo[2.2.2]octan-1-yl)methyl)-N-(4′-(methylsulfonamido)-[1,1′-biphenyl]-3-yl)bicyclo[1.1.1]pentane-1-carboxamide] | 32 | –
CC(C)(C)c1noc(C23CCC(CN(C(=O)C45CC(F)(C4)C5)c4cccc(-c5ccc(OC(F)F)cc5)c4)(CC2)CC3)n1 [Example 368, N-((4-(3-(tert-butyl)-1,2,4-oxadiazol-5-yl)bicyclo[2.2.2]octan-1-yl)methyl)-N-(4′-(difluoromethoxy)-[1,1′-biphenyl]-3-yl)-3-fluorobicyclo[1.1.1]pentane-1-carboxamide] | 135 | –
CCOc1ncc(-c2cccc(N(CC34CCC(c5nc(C(C)(C)C)no5)(CC3)CC4)C(=O)C34CC(N)(C3)C4)c2)cn1 [Example 506, 3-amino-N-((4-(3-(tert-butyl)-1,2,4-oxadiazol-5-yl)bicyclo[2.2.2]octan-1-yl)methyl)-N-(3-(2-ethoxypyrimidin-5-yl)phenyl)bicyclo[1.1.1]pentane-1-carboxamide] | – | 2370
O=C(N(CC12CCC(c3nc(C4CC4)no3)(CC1)CC2)c1cccc(-c2ccc(F)cn2)c1)C12CC(F)(C1)C2 [Example 287, N-((4-(3-cyclopropyl-1,2,4-oxadiazol-5-yl)bicyclo[2.2.2]octan-1-yl)methyl)-3-fluoro-N-(3-(5-fluoropyridin-2-yl)phenyl)bicyclo[1.1.1]pentane-1-carboxamide] | 316 | –
CC(C)(C)c1noc(C23CCC(CN(C(=O)C45CC(F)(C4)C5)c4cccc(-c5cnc(NS(C)(=O)=O)nc5)c4)(CC2)CC3)n1 [Example 367, N-((4-(3-(tert-butyl)-1,2,4-oxadiazol-5-yl)bicyclo[2.2.2]octan-1-yl)methyl)-3-fluoro-N-(3-(2-(methylsulfonamido)pyrimidin-5-yl)phenyl)bicyclo[1.1.1]pentane-1-carboxamide] | 645 | –
Cc1nc2ccc(-c3cccc(N(CC45CCC(c6nc(C7CC7)no6)(CC4)OC5)C(=O)C4CC(F)(F)C4)c3)cc2s1 [Example 565, N-((1-(3-cyclopropyl-1,2,4-oxadiazol-5-yl)-2-oxabicyclo[2.2.2]octan-4-yl)methyl)-3,3-difluoro-N-(3-(2-methylbenzo[d]thiazol-6-yl)phenyl)cyclobutane-1-carboxamide] | – | 947
CC(C)c1noc(C23CCC(CN(C(=O)C45CC(F)(C4)C5)c4cccc(-c5ccc6c(c5)OC(F)(F)O6)c4)(CC2)CC3)n1 [Example 386, N-(3-(2,2-difluorobenzo[d][1,3]dioxol-5-yl)phenyl)-3-fluoro-N-((4-(3-isopropyl-1,2,4-oxadiazol-5-yl)bicyclo[2.2.2]octan-1-yl)methyl)bicyclo[1.1.1]pentane-1-carboxamide] | 274 | –
